Reference: patent US20120095108A1, “COMPOSITION CONTAINING MICROBIAL ZEAXANTHIN AND PREPARATION THEREOF” (Vigenent Inc., priority 2010, published 2012)

Experiments:
[1] = tested on: choriocarcinoma (JAR); assay: Anti-proliferation MTT assay, JAR; type: cell-based; settings: Homo sapiens, 24 hrs, read-out: cell viability
Procedure: (§1) Cancer cells were cultured on a dish, and the cells were treated with microbial zeaxanthin dissolved in dimethyl sulfoxide. After 24 hrs incubation, thiazolyl blue tetrazolium bromide was added to the cells and incubated for 4 hours. The medium was removed and the crystals were dissolved in dimethyl sulfoxide followed by measuring the absorbance at 590 nm. Cell viability=(Abs of cell treated zeaxanthin/Abs of cell with no treatment)*100%. Since xanthophylls have been reported to be associated with lower risk of cancers (Orjuela et al., (2005) Cancer Epidemiol Biomarkers Prey. 14:1433-40; Kelemen et al., (2006) Am J Clin Nutr. 83: 1401-10; Zhang et al., (2007) Nutr Cancer. 59:46-53; Tamimi et al., (2009) Cancer Res. 69: 9323-9; Lee et al., (2009) Cancer Epidemiol Biomarkers Prey. 18:1730-9), it is necessary to determine if the microbial zeaxanthin contains anti-cancer activity. […] For comparison, the cell viabilities of non-cancer cells are 105.6% for retinal pigmented epithelium cell (ARPE-19); 102.3% for embryonic fibroblast (BCRC60118) and 95.8% for human skin fibroblast (BCRC 60153). […] For comparison, the cell viabilities of non-cancer cells are 124.2% for retinal pigmented epithelium cell (ARPE-19); 101.2% for embryonic fibroblast (BCRC60118) and 99.8% for human skin fibroblast (BCRC 60153). […]

[2] = tested on: gastric adenocarcinoma (AGS); assay: Anti-proliferation MTT assay, AGS; type: cell-based; settings: Homo sapiens, 24 hrs, read-out: cell viability
Procedure: as §1

[3] = tested on: bladder primary carcinoma (5637); assay: Anti-proliferation MTT assay, 5637; type: cell-based; settings: Homo sapiens, 24 hrs, read-out: cell viability
Procedure: as §1

[4] = tested on: colorectal adenocarcinoma (LS123); assay: Anti-proliferation MTT assay, LS123; type: cell-based; settings: Homo sapiens, 24 hrs, read-out: cell viability
Procedure: as §1

[5] = tested on: prostate carcinoma (PC-3); assay: Anti-proliferation MTT assay, PC-3; type: cell-based; settings: Homo sapiens, 24 hrs, read-out: cell viability
Procedure: as §1

[6] = tested on: pancreatic adenocarcinoma (BxPC-3); assay: Anti-proliferation MTT assay, BxPC-3; type: cell-based; settings: Homo sapiens, 24 hrs, read-out: cell viability
Procedure: as §1

[7] = MTT assay, non-cancer cells BCRC60118; type: cell-based; settings: human, embryonic fibroblast cells BCRC60118 (non-cancer), read-out: cell viability of non-cancer cells
Procedure: as §1

[8] = tested on: thyroid squamous cell carcinoma (SW579); assay: Anti-proliferation MTT assay, SW579; type: cell-based; settings: Homo sapiens, 24 hrs
Procedure: as §1

[9] = MTT assay, non-cancer cells BCRC 60153; type: cell-based; settings: human, skin fibroblast cells BCRC 60153 (non-cancer), read-out: cell viability of non-cancer cells
Procedure: as §1

[10] = tested on: ovarian cancer (TOV-112D); assay: Anti-proliferation MTT assay, TOV-112D; type: cell-based; settings: Homo sapiens, TOV112D, 24 hrs, read-out: cell viability
Procedure: as §1

[11] = MTT assay, non-cancer cells ARPE-19; type: cell-based; settings: human, ARPE-19 retinal pigmented epithelium cells (non-cancer), read-out: cell viability of non-cancer cells
Procedure: as §1

[12] = tested on: pharynx squamous cell carcinoma (FaDu); assay: Anti-proliferation MTT assay, FaDu; type: cell-based; settings: Homo sapiens, 24 hrs
Procedure: as §1

[13] = tested on: breast adenocarcinoma (MCF7); assay: Anti-proliferation MTT assay, MCF7; type: cell-based; settings: Homo sapiens, 24 hrs, read-out: cell viability
Procedure: as §1

[14] = Lipid peroxidation inhibitory activity, conjugated diene method; type: biochemical; settings: 30 μg/ml; OD 234 nm; 15 hour incubation 37° C.
Procedure: Microbial zeaxanthin was dissolved in 0.2 M potassium phosphate buffer and mixed with linoleic acid emulsion mixture prepared by potassium phosphate buffer. The absorbance of 234 nm was determined after 15 hour incubation in 37° C. Inhibition activity=[1−(Abs of sample/Abs of blank)]*100%.

[15] = Lipid peroxidation inhibitory activity, ferric thiocyanate method; type: biochemical; settings: 60 μg/ml; OD 500 nm; 24 hours incubation 37° C.
Procedure: Microbial zeaxanthin was dissolved in 0.2 M potassium phosphate buffer and mixed with linoleic acid emulsion mixture prepared by potassium phosphate buffer. After 24 hours incubation in 37° C., the mixture was added with 75% ethanol, ammonium thiocyanate, and iron(II) chloroide tetrahydrate. The absorbance at 500 nm was determined after 1 min incubation. Inhibtion activity=[1−(Abs of sample/Abs of blank)]*100%.

[16] = Total antioxidant activity, TEAC (trolox equivalent antioxidant capacity) method; type: biochemical; settings: OD 734 nm
Procedure: Microbial zeaxanthin was dissolved in 0.01M sodium phosphate buffer and mixed with 2,2′-azino-bis(3-ethylbenzthiazoline-6-sulphonic acid) containing potassium persulfate. The absorbance at 734 nm was determined after 30 min incubation. Inhibition activity=[1−(Abs of sample/Abs of blank)]*100%.

[17] = cited from earlier work
[18] = tested on: B16/F10 melanoma cells; assay: Melanin content in melanoma cells; type: cell-based; settings: Mus musculus, OD 400 nm; for inhibition at 2 µg/mL: 2 μg/ml; for inhibition at 20 µg/mL: 20 μg/ml
Procedure: B16 F0 mouse melanoma cells were cultured on the dish. The cells were treated with microbial zeaxanthin dissolved in dimethyl sulfoxide. After treated for 24 hrs and 48 hrs, respectively, the medium was removed and the cells were washed with PBS and then dissolved in 1 N NaOH containing 10% DMSO. The relative melanin content was determined at OD400 nm.

[19] = Antioxidant activity, DPPH free radical scavenging method; type: biochemical; settings: OD 517 nm
Procedure: Microbial zeaxanthin was dissolved in methanol and mixed with 2,2-diphenyl-1-picrylhydrazyl in methanol. The absorbance at 517 nm was determined after 30 min incubation. Inhibition activity=[1−(Abs of sample/Abs of blank)]*100%.

[20] = tested on: Human skin fibroblast cells (CCD-966SK cell line); assay: Photoprotection activity: viability of UV-irradiated human skin fibroblast cells; type: cell-based; settings: 15 min UV irradiation, determined at 24 hours
Procedure: Human skin fibroblast cells (CCD-966SK cell line) were cultured on the dish. The cells were treated with microbial zeaxanthin dissolved in dimethyl sulfoxide. After treated for 24 hours the dishes were irradiated UV for 15 min and the cells were incubated for 24 hours. The cells were detached by trypsin and counted by hemocytometer. The protection effect of microbial zeaxanthin on the viability of fibroblast cells is provided (FIG. 3).
Skin fibroblast cells, the essential cells of skin, are responsible for the production of collagen, a structural component of the skin (Stanley et al., (1985) J Invest Dermatol. 85:542-545; Olsen et al., (1989) J. Clin. Invest. 83: 791-795; Akagi et al., (1999) J. Invest. Dermatol. 113: 246-250). Collagen reduction is a biological phenomenon responsible for the wrinkled appearance found in the aged skin caused either intrinsic (chronologic aging) or extrinsic (e.g., photoaging: exposure to UV irradiation) (Burke et al., (1994) Exp Gerontol 29:37-53; Fisher et al., (1997) New Eng J Med 337:1419-1428; Fligiel et al., (2003) J Invest Dermatol. 120:842-848; Varani et al., (2006) Am J Pathol. 168:1861-8; Chauhan and Shakya, (2009) Indian J Dermatol Venereol Leprol. 75:463-8). […]

[21] = Lipid peroxidation inhibitory activity, liposome-TBARS method; type: biochemical; settings: OD 532 nm
Procedure: Microbial zeaxanthin was dissolved in methanol and mixed with liposome emulsion, iron(III) chloride, and ascorbic acid. After 2 hours water bath in 37° C. the mixture was added with butylated hydorxytoluene, thibarbituric acid, and trichloroacetic acid. After 20 min of water bath (100° C.), the mixture was chilled with ice. The absorbance at 532 nm was determined. MDA (malondialdehyde) inhibiton activity=[1−(Abs of sample/Abs of blank)]*100%.

CC1=C(/C=C/C(C)=C/C=C/C(C)=C/C=C/C=C(C)/C=C/C=C(C)/C=C/C2=C(C)C[C@@H](O)CC2(C)C)C(C)(C)C[C@H](O)C1 (stereo in doubt) [microbial zeaxanthin, 4-[18-(4-hydroxy-2,6,6-trimethyl-1-cyclohexenyl)-3,7,12,16-tetramethyl-octadeca-1,3,5,7,9,11,13,15,17-nonaenyl]-3,5,5-trimethyl-cyclohex-3-en-1-ol]
viability at 30 µg/mL ([1]; 30 μg/ml): 72.1%
viability at 60 µg/mL ([1]; 60 μg/ml): 40%
viability at 30 µg/mL ([2]; 30 μg/ml): 57.3%
viability at 60 µg/mL ([2]; 60 μg/ml): 40.1%
viability at 30 µg/mL ([3]; 30 μg/ml): 45.9%
viability at 60 µg/mL ([3]; 60 μg/ml): 16.4%
viability at 30 µg/mL ([4]; LS-123, 30 μg/ml): 72.3%
viability at 60 µg/mL ([4]; LS-123, 60 μg/ml): 75.3%
viability at 30 µg/mL ([5]; 30 μg/ml): 74%
viability at 60 µg/mL ([5]; 60 μg/ml): 67.7%
viability at 30 µg/mL ([6]; 30 μg/ml): 75.6%
viability at 60 µg/mL ([6]; 60 μg/ml): 33.4%
viability at 24 h, 30 μg/ml ([7]; 30 μg/ml): 102%
viability at 24 h, 60 μg/ml ([7]; 60 μg/ml): 101%
viability at 30 µg/mL ([8]; 30 μg/ml): 70.9%
viability at 60 µg/mL ([8]; 60 μg/ml): 71.7%
viability at 24 h, 30 μg/ml ([9]; 30 μg/ml): 95.8%
viability at 24 h, 60 μg/ml ([9]; 60 μg/ml): 99.8%
viability at 30 µg/mL ([10]; 30 μg/ml): 70.3%
viability at 60 µg/mL ([10]; 60 μg/ml): 20.3%
viability at 24 h, 30 μg/ml ([11]; 30 μg/ml): 106%
viability at 24 h, 60 μg/ml ([11]; 60 μg/ml): 124%
viability at 30 µg/mL ([12]; 30 μg/ml): 72.6%
viability at 60 µg/mL ([12]; 60 μg/ml): 28.5%
viability at 30 µg/mL ([13]; 30 μg/ml): 78.7%
viability at 60 µg/mL ([13]; 60 μg/ml): 61.6%

CC1=C[C@H](O)CC(C)(C)[C@H]1/C=C/C(C)=C/C=C/C(C)=C/C=C/C=C(C)/C=C/C=C(C)/C=C/C1=C(C)C[C@@H](O)CC1(C)C [lutein, reference compound]
lipid peroxidation inhibitory activity (conjugated diene method) [14]: 68.7%
lipid peroxidation inhibitory activity (ferric thiocyanate method) [15]: 68.6%

CC1=C(/C=C/C(C)=C/C=C/C(C)=C/C=C/C=C(C)/C=C/C=C(C)/C=C/C2=C(C)C[C@@H](O)CC2(C)C)C(C)(C)C[C@H](O)C1 [microbial zeaxanthin, 4-[18-(4-hydroxy-2,6,6-trimethyl-1-cyclohexenyl)-3,7,12,16-tetramethyl-octadeca-1,3,5,7,9,11,13,15,17-nonaenyl]-3,5,5-trimethyl-cyclohex-3-en-1-ol]
inhibition on absorbance (TEAC) ([16]; 62.5 μg/ml): 15.68%
inhibition on absorbance (TEAC) ([16]; 125 μg/ml): 28.13%
inhibition on absorbance (TEAC) ([16]; 250 μg/ml): 53.35%
inhibition on absorbance (TEAC) ([16]; 500 μg/ml): 91.22%
Solubility in chloroform ([17]; chloroform): soluble giving a clear intensive orange-red
Solubility in ethanol ([17]; ethanol): sparingly
Solubility in water ([17]; water): insoluble
inhibition at 2 µg/mL ([18]; 24 hrs): 6.74%
inhibition at 2 µg/mL ([18]; 48 hrs): 32.5%
inhibition at 20 µg/mL ([18]; 24 hrs): 22.7%
inhibition at 20 µg/mL ([18]; 48 hrs): 36.7%
inhibition on absorbance (DPPH) ([19]; 62.5 μg/ml): 10.02%
inhibition on absorbance (DPPH) ([19]; 125 μg/ml): 13.04%
inhibition on absorbance (DPPH) ([19]; 250 μg/ml): 30.18%
inhibition on absorbance (DPPH) ([19]; 500 μg/ml): 48.20%
inhibition on absorbance (DPPH) ([19]; 1000 μg/ml): 96.69%
cell viability increased as compared to no zeaxanthin treatment ([20]; 20 μg/ml): 18.9%
cell viability increased as compared to no zeaxanthin treatment ([20]; 50 μg/ml): 33.7%
lipid peroxidation inhibitory activity (conjugated diene method) [14]: 67.4%
lipid peroxidation inhibitory activity (ferric thiocyanate method) [15]: 66.9%
inhibition on free MDA formation ([21]; 125 μg/ml): 55.23%
inhibition on free MDA formation ([21]; 250 μg/ml): 61.05%
inhibition on free MDA formation ([21]; 500 μg/ml): 71.16%
inhibition on free MDA formation ([21]; 1000 μg/ml): 78.45%
inhibition on free MDA formation ([21]; 2000 μg/ml): 80.75%
